Assays:
[1] = test system: Barnyardgrass (Echinochloa crus-galli); experiment: Postemergence herbicidal activity, Barnyardgrass; assay type: in vivo; conditions: post-emergence, 336 h, visual score after 2 weeks, 0 = no injury, 100 = complete kill, read-out: Post-emergent % control ECHCG; for pest or weed control at 250 ppm: rate 250 ppm
Method: (§1) Seeds of the desired test plant species were planted in Grace-Sierra MetroMix® 306 planting mixture, which typically has a pH of 6.0 to 6.8 and an organic matter content of about 30 percent, in plastic pots with a surface area of 64 square centimeters. When required to ensure good germination and healthy plants, a fungicide treatment and/or other chemical or physical treatment was applied. The plants were grown for 7-21 days in a greenhouse with an approximate 15 hr photoperiod which was maintained at about 23-29° C. during the day and 22-28° C. during the night. Nutrients and water were added on a regular basis and supplemental lighting was provided with overhead metal halide 1000-Watt lamps as necessary. The plants were employed for testing when they reached the first or second true leaf stage. A weighed amount, determined by the highest rate to be tested, of each test compound was placed in a 20 mL glass vial and was dissolved in 4 mL of a 97:3 v/v (volume/volume) mixture of acetone and dimethyl sulfoxide (DMSO) to obtain concentrated stock solutions. […] The concentrated stock solutions obtained were diluted with an aqueous mixture containing acetone, water, isopropyl alcohol, DMSO, Atplus 411F crop oil concentrate, and Triton X-155 surfactant in a 48.5:39:10:1.5:1.0:0.02 v/v ratio to obtain spray solutions of known concentration. The solutions containing the highest concentration to be tested were prepared by diluting 2 mL aliquots of the stock solution with 13 mL of the mixture and lower concentrations were prepared by serial dilution of the stock solution. Approximately 1.5 mL aliquots of each solution of known concentration were sprayed evenly onto each of the test plant pots using a DeVilbiss atomizer driven by compressed air pressure of 2 to 4 psi (140 to 280 kilopascals) to obtain thorough coverage of each plant. Control plants were sprayed in the same manner with the aqueous mixture. In this test an application rate of 1 ppm results in the application of approximately 1 g/Ha. The treated plants and control plants were placed in a greenhouse as described above and watered by sub-irrigation to prevent wash-off of the test compounds. After 2 weeks the condition of the test plants as compared with that of the untreated plants was determined visually and scored on a scale of 0 to 100 percent where 0 corresponds to no injury and 100 corresponds to complete kill.

[2] = test system: Crabgrass(large) (Digitaria sanguinalis); experiment: Preemergence herbicidal activity, Crabgrass(large); assay type: in vivo; conditions: pre-emergence, 504 h, visual score after 3 weeks, 100 = complete kill or no germination, read-out: Pre-emergent % control DIGSA; for pest or weed control at 280 ppm: rate 280 ppm
Excerpt: (§2) Seeds of the desired test plant species were planted in a soil matrix prepared by mixing a loam soil (43 percent silt, 19 percent clay, and 38 percent sand, with a pH of about 8.1 and an organic matter content of about 1.5 percent) and sand in a 70 to 30 ratio. The soil matrix was contained in plastic pots with a surface area of 113 square centimeters. When required to ensure good germination and healthy plants, a fungicide treatment and/or other chemical or physical treatment was applied. A weighed amount, determined by the highest rate to be tested, of each test compound was placed in a 20 mL glass vial and was dissolved in 4 mL of a 97:3 v/v (volume/volume) mixture of acetone and dimethyl sulfoxide to obtain concentrated stock solutions. […] The stock solutions obtained were diluted with a 99.9:0.1 mixture of water and Tween® […] surfactant to obtain application solutions of known concentration. The solutions containing the highest concentration to be tested were prepared by diluting 2 mL aliquots of the stock solution with 15 mL of the mixture and lower concentrations were prepared by serial dilution of the stock solution. A 2.5 mL aliquot of each solution of known concentration was sprayed evenly onto the soil surface (113 sq. cm) of each seeded pot using a Cornwall 5.0 mL glass syringe fitted with a TeeJet TN-3 hollow cone nozzle to obtain thorough coverage of the soil in each pot. Control pots were sprayed in the same manner with the aqueous mixture. The treated pots and control pots were placed in a greenhouse maintained with an approximate 15 hr photoperiod and temperatures of about 23-29° C. during the day and 22-28° C. during the night. Nutrients and water were added on a regular basis and supplemental lighting was provided with overhead metal halide 1000-Watt lamps as necessary. The water was added by top-irrigation. After 3 weeks the condition of the test plants that germinated and grew as compared with that of the untreated plants that germinated and grew was determined visually and scored on a scale of 0 to 100 percent where 0 corresponds to no injury and 100 corresponds to complete kill or no germination.

[3] = test system: Corn (#14 3377) (Zea mays); experiment: Postemergence herbicidal activity, selectivity to corn; assay type: in vivo; conditions: crop (corn) selectivity, visual score after 2 weeks, 0 = no injury
Method: as §1

[4] = test system: Ivyleaf Morningglory (Ipomoea hederacea); experiment: Preemergence herbicidal activity, Ivyleaf Morningglory; assay type: in vivo; conditions: pre-emergence, 504 h, visual score after 3 weeks, 100 = complete kill or no germination, read-out: Pre-emergent % control IPOHE; for pest or weed control at 280 ppm: rate 280 ppm
Excerpt: as §2

[5] = test system: Giant Foxtail (Setaria faberi); experiment: Preemergence herbicidal activity, Giant Foxtail; assay type: in vivo; conditions: pre-emergence, 504 h, visual score after 3 weeks, 100 = complete kill or no germination, read-out: Pre-emergent % control SETFA; for pest or weed control at 280 ppm: rate 280 ppm
Excerpt: as §2

[6] = test system: Lambsquarter (Chenopodium album); experiment: Postemergence herbicidal activity, Lambsquarter; assay type: in vivo; conditions: post-emergence, 336 h, visual score after 2 weeks, 0 = no injury, 100 = complete kill, read-out: Post-emergent % control CHEAL; for pest or weed control at 250 ppm: rate 250 ppm
Method: as §1

[7] = test system: Wheat(var.Merica) (Triticum aestivum); experiment: Postemergence herbicidal activity, selectivity to wheat; assay type: in vivo; conditions: crop (wheat) selectivity, visual score after 2 weeks, 0 = no injury
Method: as §1, with “Control plants were sprayed in the same manner with the aqueous mixture. In this test an application rate of 1 ppm results in the application of approximately 1 g/Ha. The treated plants and control plants were placed in a greenhouse as described above and watered by sub-irrigation to prevent wash-off of the test compounds.” left out

[8] = test system: Cocklebur (Xanthium strumarium); experiment: Postemergence herbicidal activity, Cocklebur; assay type: in vivo; conditions: post-emergence, 336 h, rate 250 ppm, visual score after 2 weeks, 0 = no injury, 100 = complete kill, read-out: Post-emergent % control XANST
Method: as §1

[9] = test system: Lambsquarter (Chenopodium album); experiment: Preemergence herbicidal activity, Lambsquarter; assay type: in vivo; conditions: pre-emergence, 504 h, visual score after 3 weeks, 100 = complete kill or no germination, read-out: Pre-emergent % control CHEAL; for pest or weed control at 280 ppm: rate 280 ppm
Excerpt: as §2

[10] = test system: Giant Foxtail (Setaria faberi); experiment: Postemergence herbicidal activity, Giant Foxtail; assay type: in vivo; conditions: post-emergence, 336 h, visual score after 2 weeks, 0 = no injury, 100 = complete kill, read-out: Post-emergent % control SETFA; for pest or weed control at 250 ppm: rate 250 ppm
Method: as §1

[11] = test system: Pigweed (redroot) (Amaranthus retroflexus); experiment: Postemergence herbicidal activity, Pigweed (redroot); assay type: in vivo; conditions: visual score after 2 weeks, 0 = no injury, 100 = complete kill
Method: as §1

| SMILES | pest or weed control at 250 ppm [1] [%] | pest or weed control at 280 ppm [2] [%] | Post-emergent % control ZEAMX ([3]; rate 250 ppm) [%] | pest or weed control at 280 ppm [4] [%] | pest or weed control at 280 ppm [5] [%] | pest or weed control at 250 ppm [6] [%] | Post-emergent % control TRZAS ([7]; rate 250 ppm) [%] | pest or weed control at 250 ppm [8] [%] | pest or weed control at 280 ppm [9] [%] | pest or weed control at 250 ppm [10] [%] | Post-emergent % control AMARE ([11]; rate 250 ppm) [%] | other results |
| --- | --- | --- | --- | --- | --- | --- | --- | --- | --- | --- | --- | --- |
| CCc1cc(N)c(Cl)c(C(=O)O)n1 [Compound 6, 4-Amino-3-chloro-6-ethylpyridine-2-carboxylic acid] | 0 | 15 | 0 | 100 | 0 | 90 | 0 | 98 | 90 | 0 | 100 | melting point: 140 to 142 °C |
| COC(=O)c1nc(C)cc(N)c1Cl [Compound 13, Methyl 4-amino-3-chloro-6-methylpyridine-2-carboxylate] | – | – | – | – | – | – | – | – | – | – | – | pest or weed control at 254 ppm ([1]; rate 254 ppm): 0%; pest or weed control at 573 ppm ([2]; rate 573 ppm): 0%; Post-emergent % control ZEAMX ([3]; rate 254 ppm): 0%; pest or weed control at 573 ppm ([4]; rate 573 ppm): 90%; pest or weed control at 573 ppm ([5]; rate 573 ppm): 0%; pest or weed control at 254 ppm ([6]; rate 254 ppm): 70%; Post-emergent % control TRZAS ([7]; rate 254 ppm): 0%; pest or weed control at 573 ppm ([9]; rate 573 ppm): 100%; pest or weed control at 254 ppm ([10]; rate 254 ppm): 0%; Post-emergent % control AMARE ([11]; rate 254 ppm): 90% |
| CCc1cc(N)c(Cl)c(C(=O)OC)n1 [Compound 4, Methyl 4-amino-3-chloro-6-ethylpyridine-2-carboxylate] | 0 | 0 | 0 | 100 | 0 | 100 | 0 | 95 | 98 | 0 | 98 | – |
| COCc1cc(N)c(Cl)c(C(=O)O)n1 [Compound 9, 4-Amino-3-chloro-6-(methoxymethyl)pyridine-2-carboxylic acid] | 0 | – | 0 | – | – | 80 | – | 80 | – | 0 | 90 | pest or weed control at 560 ppm ([2]; rate 560 ppm): 10%; pest or weed control at 560 ppm ([4]; rate 560 ppm): 50%; pest or weed control at 560 ppm ([5]; rate 560 ppm): 10%; pest or weed control at 560 ppm ([9]; rate 560 ppm): 90% |

Reference: patent publication US7432227B2, “6-alkyl or alkenyl-4-aminopicolinates and their use as herbicides” (Dow AgroSciences LLC, priority 2003, dated 2008)
